{"source": "patent US10335488B2", "about": "“Method for treating cancer by photodynamic therapy” (D. R. NANO CO., LTD., priority 2014, dated 2019)", "key": {"[1]": {"system": "cancer cells MDA-MB-231, MCF-7, PC-3, HeLa, HT-29; normal cells MRC-5, clone 1-5c-4, NIH/3T3", "test": "Accumulation in cells by fluorescence microscopy", "type": "cell-based, human; mouse (NIH/3T3)", "conditions": "1 hour incubation, fluorescence microscope", "experimental": "In order to determine if the nanoparticles (MB NPs) prepared in Example 1 would be accumulated in the cancer cell, 1×10^5 of each of cancer cells MDA-MB-231 (breast, mammary gland/human, Korean Cell Line Bank), MCF-7 (breast, mammary gland/human, Korean Cell Line Bank), PC-3 (prostate; grade 4; metastasis to bone/human, Korean Cell Line Bank), HeLa (cervix/human, Korean Cell Line Bank), and HT-29 (Colon/human, Korean Cell Line Bank) was respectively dispersed in 2 mL of cell culture solution [DMEM (WELGENE) culture solution was used for the HeLa cell, and RPMI1640 (WELGENE) culture solution was used for the other cells]. And then the solution was put into a dish for cell culture (35 mm, glass-bottomed dish), and cultured in a culture chamber (5% CO2, 37° C.). After 24 hours, the dish was washed with 2 mL of DPBS (WELGENE), and 1.8 mL of the culture solution and 0.2 mL of the nanoparticles were added thereto, and the resulting dish was stored in a culture chamber (5% CO2, 37° C.) for 1 hour. The stored cell culture dish was washed with 2 mL of DPBS, cells were fixed with 1 mL of a cell fixation solution, and then fluorescence images were observed by fluorescence microscope (LEICA DMI3000B equipped with a Nuance FX multispectral imaging system, CRI). […]"}, "[2]": {"system": "cancer cells (MDA-MB-231, MCF-7, PC-3, HeLa, HT-29) and normal cells (MRC-5, Clone-1-5c-4, NIH3T3)", "test": "Cytotoxicity (Dark) by MTT analysis", "type": "cell-based, human; mouse (NIH/3T3)", "conditions": "1 hour incubation, no laser", "experimental": "In order to confirm of the cytotoxicity of MB NPs, 200 μL of a cell culture solution in which 1×10^4 ea of cells were dispersed was put into a dish for cell culture (96-well plate) and cultured (5% CO2, 37° C.) in an artificial culture chamber for 24 hours, and the dish was washed with DPBS, and then a mixture solution of 20 μL of MB NPs and 180 μL of a cell culture solution was added to the cell, and the resulting culture solution was cultured in the same artificial culture chamber for 1 hour. After the dish was washed with DPBS, the number of each cell was observed by the MTT analysis method.\nThe experiment was performed on cancer cells and normal cells, and MDA-MB-231 cell, MCF-7 cell, PC-3 cell, HeLa cell, and HT-29 cell are illustrated in FIGS. 7a, 7b, 7c, 7d, and 7e, respectively, and normal cells MRC-5, Clone-1-5c-4, and NIH3T3 are illustrated in FIGS. 8a to 8c, respectively."}}, "data": [{"compound": "CN(C)c1ccc2nc3ccc(=[N+](C)C)cc-3sc2c1", "note": "[MB Sol., methylene blue]", "values": [{"measurement": "infiltration capacity into cell", "setting": "[1]", "value": "not found in the cell"}, {"measurement": "cytotoxicity of the material (Dark)", "setting": "[2]", "value": "no cytotoxicity of the material itself"}]}]}
